Data as given in US4465676A, “16α Halogen substituted 3,17β-dihydroxy steroidal estrogens” (priority 1980, dated 1984).
Read-outs that look alike come from different tables or passages of the source.

Tests used:
[1] = target: T1, estrogen receptor (calf uterine cytosol) (Bos taurus, UniProt P49884); experiment: Competition for the estrogen receptor in calf uterine cytosol; format: binding; conditions: for activity at 0.0005 µM: competitor 0.5 nM
T1 construct: Fresh calf uteri obtained from a slaughterhouse; from tissue; host or cells: calf uterus, 150,000 x g cytosol from lyophilized powder
T1 sequence (P49884 1-596): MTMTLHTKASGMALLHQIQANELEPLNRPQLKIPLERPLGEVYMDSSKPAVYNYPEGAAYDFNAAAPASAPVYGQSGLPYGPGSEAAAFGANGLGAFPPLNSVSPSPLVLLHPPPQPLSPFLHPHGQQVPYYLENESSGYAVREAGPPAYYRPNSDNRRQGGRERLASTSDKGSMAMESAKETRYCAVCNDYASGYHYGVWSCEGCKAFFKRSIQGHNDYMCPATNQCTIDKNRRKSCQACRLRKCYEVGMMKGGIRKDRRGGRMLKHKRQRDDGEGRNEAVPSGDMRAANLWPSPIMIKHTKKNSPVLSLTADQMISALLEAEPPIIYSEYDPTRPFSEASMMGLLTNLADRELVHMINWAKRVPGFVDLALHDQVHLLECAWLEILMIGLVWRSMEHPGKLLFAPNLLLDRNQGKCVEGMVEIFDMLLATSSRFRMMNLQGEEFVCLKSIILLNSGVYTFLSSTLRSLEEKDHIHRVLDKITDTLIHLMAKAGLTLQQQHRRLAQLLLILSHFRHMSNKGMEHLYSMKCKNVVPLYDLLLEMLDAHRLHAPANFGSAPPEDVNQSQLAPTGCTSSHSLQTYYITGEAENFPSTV
Protocol: Several compounds, at the two indicated concentrations, were allowed to compete with both labeled steroids for sites in calf uterine cytosol. Incubations were overnight at 4° C., and bound and free steroids were separated with dextran-coated charcoal.

[2] = External localization of tracer in an ovariectomized squirrel monkey; format: in vivo, squirrel monkey (Saimari Sciureus)
Protocol: The tracer ^131 I-E2 was synthesized as described in Example 6 with the exception that Na ^131 I was used for the exchange. The subject, a squirrel monkey (Saimari Sciureus), weighing 1.5 kilograms, was ovariectomized 2 weeks before the start of the experiment and an estradiol containing Silastic implant was placed subcutaneously in […] back. The implant was removed 24 hours before the intravenous injection of 200 μCi of the tracer dissolved in saline. […] Within 1 to 2 hours radioactivity could be detected in the suprapubic region, but when the bladder was aspirated and washed, 3.8 μCi of radioactivity was found in the urine.

[3] = system: estrogen-dependent human breast tumor cell line (MCF-7); experiment: Induction of growth of MCF-7 cells in vitro; format: cell-based
Source text: This difference in potency, can be explained either by differences in the peripheral metabolism of the two compounds or by differences in events that occur after binding to the cytosolic receptor has taken place. At this time we believe the former explanation to be correct because the two estrogens are equipotent in vitro in inducing growth of an estrogen-dependent human breast tumor cell line (MCF-7).

[4] = system: antisera against bovine serum albumin complexes with E2-17-hemisuccinate, E2-6-carboxymethyloxime and E2-3-carboxymethyl ether; experiment: Radioimmunoassay with antisteroid antisera; format: binding, rabbits
Protocol: Antisteroid antisera were produced in rabbits immunized with steroid-bovineserum albumin conjugates.
Varying amounts of E2 dissolved in methanol were added to test tubes and evaporated to dryness. The residues were dissolved in 100 μl of antiserum that had been diluted in 0.1M phosphate, pH 7.0/0.015M sodium azide/0.15M NaCl/0.1% gelatin (PBS buffer). […] Upon completion of the incubation, 100 μl of 0.5% gelatin in PBS buffer was added, followed by 1 ml of PBS buffer containing 2.5 mg of dextran-coated charcoal. The mixture was agitated in a vortex mixer and, after 10 minutes at 4° C., it was centrifuged at 5000×g for 10 minutes at 4° C. Aliquots (0.9 ml) were assayed for radioactivity.
The data also indicate that very sensitive radioimmunoassays could be developed with all three antisera.

estrogen receptors = conditions: ability to displace [3H]estradiol from receptor sites; cited from earlier work
[5] = target: T2, calf uterine estrogen receptor (Bos taurus, UniProt P49884); experiment: Saturation and Scatchard analysis of the estrogen receptor from calf uterus; format: binding; conditions: Scatchard analysis, calf uterine cytosol
T2 construct: Fresh calf uteri obtained from a slaughterhouse; from tissue; host or cells: calf uterus, 150,000 x g cytosol from lyophilized powder
T2 sequence (P49884 1-596): T1 sequence (P49884 1-596)
Protocol: Fresh calf uteri obtained from a slaughterhouse were brought to the laboratory on ice, immediately trimmed of fat, and cut into small pieces; the pieces were frozen in liquid nitrogen and pulverized. The pulverized frozen tissue was lyophilized, and the desiccated powder was stored under vacuum in sealed vials at -80° C. The uterine powders were usually used within 1 month of pulverization. When needed, the powders were suspended in 0.1M Tris-HCl, pH 7.4/2.5 mM EDTA/5 mM dithiotreithol (TED buffer) at 2.5 mg/ml and homogenized at 0° C. in a Polytron homogenizer with two or three pulses at 15 seconds each. The homogenate was then centrifuged at 150,000×g for 60 minutes and the resulting supernatant (cytosol), containing approximately 1 mg of protein per ml, was used for binding studies on the estrogen receptor.
After the solvent was removed under a stream of N2, 250 μl of cytosol was added and the samples were incubated at 0°-2° C. overnight. The following morning, 250 μl of a 0.5% suspension of dextran-coated charcoal in TED buffer was added to the tubes which then were mixed and centrifuged at 5000×g for 10 minutes. The supernatant was assayed to determine bound radioactivity.
A saturation analysis of the estrogen receptor from calf uterus was conducted. […] Nonspecific binding, specific binding and total binding were determined in parallel incubations containing 0.7 μM DES.
A Scatchard analysis of the estrogen receptor from calf uterus was also conducted.

[6] = system: 21-day-old female rats (uteri); experiment: Estrogen bioassay, uterine weight in 21-day-old female rats; format: in vivo; conditions: daily s.c. injections for 3 days, uterine weight on fourth day
Protocol: Estrogenic potency was assayed in 21-day-old female rats. […] On the fourth day, the uteri were removed, trimmed, blotted, and weighed.

[7] = read-out: B/B0 × 10^2, tracer ^3 H-E2 (0.74 nM)
[8] = read-out: B/B0 × 10^2, tracer ^3 H-E2 (0.74 nM), competitor 5.0 nM
[9] = read-out: B/B0 × 10^2, tracer ^125 I-E2 (0.22 nM)
[10] = read-out: B/B0 × 10^2, tracer ^125 I-E2 (0.22 nM), competitor 5 nM

CC(=O)[C@H]1CC[C@H]2[C@@H]3CCC4=CC(=O)CC[C@]4(C)[C@H]3CC[C@]12C [Progesterone]
activity at 0.0005 µM [1, 7]: 97%
activity at 0.005 µM [1, 8]: 102%
activity at 0.0005 µM [1, 9]: 98%
activity at 0.005 µM [1, 10]: 102%

C[C@]12CC[C@@H]3c4ccc(O)cc4CC[C@H]3[C@@H]1C[C@@H]([131I])[C@@H]2O [^131 I-E2]
imaging of the uterus ([2]; Anger Camera): uterus was then imaged
radioactivity found in the urine ([2]; bladder aspirated and washed, i.v. 200 μCi): 3.8 μCi
time until radioactivity detected in the suprapubic region ([2]; i.v. 200 μCi): 1 to 2 h
uptake of the tracer in the liver ([2]; i.v. 200 μCi, pin-hole collimator scan): could be seen immediately

C[C@]12CC[C@@H]3c4ccc(O)cc4CC[C@H]3[C@@H]1CC[C@@H]2O [E2, estra-1,3,5(10)-triene-3,17β-diol, reference compound]
inducing growth of MCF-7 [3]: equipotent
tracer displaced from the antibody ([4]; anti-E2-6-carboxymethyloxime-albumin, 1 pg of E2): ~50%

C[C@]12CC[C@H](O)CC1=CC[C@@H]1[C@@H]2CC[C@]2(C)C(=O)CC[C@@H]12 [Dehydroisoandrosterone]
activity at 0.0005 µM [1, 7]: 98%
activity at 0.005 µM [1, 8]: 108%
activity at 0.0005 µM [1, 9]: 104%
activity at 0.005 µM [1, 10]: 107%

[3H]C1c2cc(O)ccc2[C@H]2CC[C@]3(C)[C@@H](O)CC[C@H]3[C@@H]2C1[3H] (stereo partly drawn) [^3 H-E2]
binding of tracer to antisera ([4]; three antisera, various dilutions): bound to all three antisera

C[C@]12CC[C@@H]3c4ccc(O)cc4CC[C@H]3[C@@H]1C[C@H](I)[C@@H]2O [16β-iodoestra-1,3,5(10)-triene-3-17β-diol]
relative binding affinity (estrogen receptors): 0.57

C[C@]12C[C@H](O)[C@H]3[C@@H](CCC4=CC(=O)CC[C@@]43C)[C@@H]1CC[C@@H]2C(=O)CO [Corticosterone]
activity at 0.0005 µM ([1]; tracer ^3 H-E2 (0.74 nM), read-out: B/B0 × 10^2): 103%
activity at 0.005 µM ([1]; tracer ^3 H-E2 (0.74 nM), competitor 5.0 nM, read-out: B/B0 × 10^2): 97%
activity at 0.0005 µM ([1]; tracer ^125 I-E2 (0.22 nM), read-out: B/B0 × 10^2): 100%
activity at 0.005 µM ([1]; tracer ^125 I-E2 (0.22 nM), competitor 5 nM, read-out: B/B0 × 10^2): 93%

C[C@]12CC[C@@H]3c4ccc(O)cc4C(I)=C[C@H]3[C@@H]1CC[C@@H]2O [6-iodoestra-1,3,5(10), 6-tetraene-3,17β-diol]
relative binding affinity (estrogen receptors): 0.49

C[C@]12CC[C@@H]3c4ccc(O)cc4CC[C@H]3[C@@H]1C[C@@H](I)[C@@H]2O [I-E2, 16α-iodoestra-1,3,5,(10)-triene-3,17β-diol]
binding capacity [5]: 411 fmol/mg of protein
Kd ([5]; read-out: Ka (association constant) (converted)): 141 pM
inducing growth of MCF-7 [3]: equipotent
estrogenic potency in vivo [6]: estrogenic in vivo, albeit not as potent as E2 itself
activity at 0.0005 µM [1, 7]: 69%
activity at 0.005 µM [1, 8]: 12%
activity at 0.0005 µM [1, 9]: 35%
activity at 0.005 µM [1, 10]: 2%
competing for the estrogen receptor (in words) ([1]; regardless of which radioactive ligand was used): about equipotent
